According to ChEMBL document CHEMBL1135313, “Bromotyrosine-derived natural and synthetic products as inhibitors of mycothiol-S-conjugate amidase” (Bioorg Med Chem Lett, 2002):
pIC50: −log10 of the molar value.

Molecular target: T1, Mycothiol S-conjugate amidase (Mycobacterium tuberculosis, UniProt P9WJN1)
T1 sequence (P9WJN1 whole entry): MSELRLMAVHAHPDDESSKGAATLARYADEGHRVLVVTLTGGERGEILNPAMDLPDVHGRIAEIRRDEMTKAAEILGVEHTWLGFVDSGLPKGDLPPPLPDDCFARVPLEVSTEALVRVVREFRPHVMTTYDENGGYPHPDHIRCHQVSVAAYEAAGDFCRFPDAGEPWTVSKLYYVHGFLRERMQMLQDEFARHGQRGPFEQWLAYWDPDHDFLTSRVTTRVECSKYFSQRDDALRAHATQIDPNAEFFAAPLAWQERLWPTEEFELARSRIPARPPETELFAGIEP
Experiment: Inhibition of Mycothiol -S-conjugate amidase (MCA) from mycobacterium tuberculosis

SMILES	pIC50
CC(=O)N[C@H](CS)C(=O)NC1C(OC2C(O)C(O)C(O)C(O)C2O)OC(CO)C(O)C1O (stereo partly specified)	~6.00
COC1=C(Br)C[C@]2(C=C1Br)CC(C(=O)NCCc1c[nH]c(N)n1)=NO2	4.00
COC1=C(Br)C[C@]2(OC=C1Br)ON=C(C(=O)NCCOc1c(Br)cc(CCN)cc1Br)[C@@H]2O	4.70
Cc1cccc(C)c1SSCCNC(=O)/C(Cc1cccc(Br)c1)=N/O	4.19
O=C(NCCSSc1ccc(F)cc1)/C(Cc1cccc(Br)c1)=N\O	4.05
Nc1ccc(SSCCNC(=O)/C(Cc2ccc(O)c(Cl)c2)=N\O)cc1	4.46
Nc1ccc(SSCCNC(=O)/C(Cc2cc(F)cc(F)c2)=N\O)cc1	3.35
Nc1ccc(SSCCNC(=O)/C(Cc2cccc(Br)c2)=N\O)cc1	3.73
NCCCOc1c(Br)cc(C/C(=N\O)C(=O)NCCc2c[nH]c(N)n2)cc1Br	4.44
O=C(NCCSSCCNC(=O)/C(Cc1ccc(O)c(Br)c1)=N/O)/C(Cc1ccc(O)c(Br)c1)=N/O [PSAMMAPLIN A]	5.55
N=C(N)CCCCNC(=O)/C(Cc1cc(Br)c(OCCCN)c(Br)c1)=N/O	5.55
COC1=C(Br)C[C@]2(OC=C1Br)ON=C(C(=O)NCCOc1c(Br)cc(C(O)CN)cc1Br)[C@@H]2O (stereo partly specified)	4.59
COC1=C(Br)[C@@H](O)[C@]2(C=C1Br)CC(C(=O)NCCc1[nH]c(N)nc1-c1cc(O)c3ncc(O)c(O)c3c1O)=NO2	5.70
O=C(NCCSSc1ccc(F)cc1)/C(Cc1cc(F)cc(F)c1)=N\O	2.57
CC(=O)N[C@H](CSCc1c(C)c(=O)n2c(=O)c(C)c(C)n12)C(=O)NC1C(OC2C(O)C(O)C(O)C(O)C2O)OC(CO)C(O)C1O (stereo partly specified) [MYCOTHIOL BIMANE]	~6.00
O=C(NCCSSc1ccc(F)cc1)/C(Cc1ccc(O)c(Cl)c1)=N\O	4.43
